Like-named read-outs stand apart in the source and are kept apart here.
Assays:
[1] = system: P. falciparum drug-sensitive NF54 (PfNF54) asexual intra-erythrocytic parasites; assay: SYBR Green I proliferation assay, PfNF54 asexual blood stages; format: cell-based, Plasmodium falciparum
Description: Figure 1 Activity profile of Aur class anticancer inhibitors across the life cycle of Plasmodium falciparum parasites. a) Activity (IC50) of inhibitors (grouped based on specificity against human Aur) against P.falciparum drug‐sensitive (PfNF54) asexual intra‐erythrocytic parasites as measured with SYBR Green I fluorescence as an indicator of viability and proliferation. […] ABS, asexual blood stages of the parasite; HsAur, human Aur.
P. falciparum drug sensitive NF54 (PfNF54) and drug-resistant Dd2 (PfDd2, chloroquine, pyrimethamine and mefloquine resistant) strains were cultured in vitro in human O^+/A^+ erythrocytes (5% hematocrit) in complete medium at 2–5% parasitemia, 37 °C, shaking at 60 rpm under hypoxic conditions (90% N2, 5% O2 and 5% CO2). […] Gametocytogenesis was followed with daily media changes (including glucose) and ABS parasites removed with 50 mM N-acetylglucosamine (day 1–4 for stage II/III; days 3–7 for stage IV/V).
All inhibitors were dissolved in dimethyl sulfoxide (DMSO). […] Ring-stage ABS parasites (1% parasitemia, 1% hematocrit) were treated with compounds for 96 h at 37 °C with chloroquine disulphate (0.5 μM) as positive drug control. […] Luciferase activity was determined using a non-lysing D-luciferin substrate (1 mM in 0.1 M citrate buffer, pH 5.5, 100 μL) and bioluminescence was detected with a GloMax® - Multi Detection System with Instinct® software.

[2] = system: multidrug-resistant PfDd2 ABS parasites; assay: SYBR Green I proliferation assay, PfDd2 asexual blood stages; format: cell-based; settings: Plasmodium falciparum, DD2, read-out: Pf Dd2 ABS IC50
Protocol: (§1) (B) Antiplasmodial activity of nine anticancer aurora kinase inhibitors (selected based on their PfNF54 ABS activity) against P. falciparum multidrug-resistant ABS parasites (PfDd2 and PfK1). (C) Kinobead competitive inhibition data.
P. falciparum drug sensitive NF54 (PfNF54) and drug-resistant Dd2 (PfDd2, chloroquine, pyrimethamine and mefloquine resistant) strains were cultured in vitro in human O^+/A^+ erythrocytes (5% hematocrit) in complete medium at 2–5% parasitemia, 37 °C, shaking at 60 rpm under hypoxic conditions (90% N2, 5% O2 and 5% CO2). Immature and mature gametocytes were produced from P. falciparum 3D7elo1-pfs16-CBG99 (kind gift from Pietro Alano, ISS, Italy) ^[1] as described^[2,3] by simultaneously applying nutrient starvation and decreasing hematocrit to induce >97% ring-stage ABS parasites (0.5% parasitemia, 6% hematocrit). Gametocytogenesis was followed with daily media changes (including glucose) and ABS parasites removed with 50 mM N-acetylglucosamine (day 1–4 for stage II/III; days 3–7 for stage IV/V).
(§2) All inhibitors were dissolved in dimethyl sulfoxide (DMSO). Antiplasmodium activity of selected anti-cancer inhibitors was determined on P. falciparum NF54 and Dd2 strains, measuring SYBR Green I fluorescence (485 nm excitation, 538 nm emission) as an indicator of proliferation^[4]. Ring-stage ABS parasites (1% parasitemia, 1% hematocrit) were treated with compounds for 96 h at 37 °C with chloroquine disulphate (0.5 μM) as positive drug control. The activity of the inhibitors was tested against immature (>95% stage II/III) and late-stage (>90% stage IV/V) gametocytes using a luciferase reporter assay on 3D7elo1-pfs16-CBG99 ^[1]. […] Luciferase activity was determined using a non-lysing D-luciferin substrate (1 mM in 0.1 M citrate buffer, pH 5.5, 100 μL) and bioluminescence was detected with a GloMax® - Multi Detection System with Instinct® software.

[3] = system: multidrug-resistant PfK1 ABS parasites; assay: SYBR Green I proliferation assay, PfK1 asexual blood stages; format: cell-based; settings: Plasmodium falciparum
Protocol: as §1, §2

[4] = system: synthetic β-hematin (βH) formation; assay: NP-40 mediated cell-free β-hematin inhibition assay; format: biochemical; settings: cell-free NP-40, pH 4.8, 5 h
Protocol: The β-hematin inhibition assay, as described in^[30,31] was used to test the inhibitors for their ability to inhibit β-hematin formation. The test samples were prepared as 20 mM or 10 mM stock solutions in dimethyl sulfoxide (DMSO). Serial dilutions of each inhibitor (100 μL) were performed from column 12 to column 2 of a 96-well plate in triplicate, with column 1 serving as a negative control (0 μM test inhibitor). The samples were tested at a starting in-well concentration of 1000 μM (20 mM stock) or 500 μM (10 mM stock). An “NP-40 substitute” detergent was added (305.5 μM) to each well to mimic the lipophilic environment in which hemozoin formation occurs within the parasite’s digestive vacuole, in helping to mediate the formation of β-hematin. A 25 mM hematin stock was prepared by sonicating heme in DMSO and then suspending 178.8 μL of this in 1 M acetate buffer (20 mL, pH 4.8). Then, 100 μL of the hematin suspension was added to each well to a final well volume of 200 μL. The plate was then incubated for 5 hours at 37 °C. After incubation, 32 μL and 60 μL of 50% pyridine solution and acetone were added, respectively. The pyridine-ferrochrome method by^[31] was used for UV-vis analysis, with the heme-pyridine complex absorbance measured at 405 nm. Data were analysed using Microsoft Excel and GraphPad Prism v10.5 software.

[5] = system: PfNF54 male gamete formation (exflagellation); assay: P. falciparum Dual Gamete Formation Assay (PfDGFA), male; format: cell-based; settings: Plasmodium falciparum
Protocol: (§3) The Pf DGFA^[8] was performed by incubating PfNF54 gametocytes with test molecules in 384-well plates for 48 h. Gametogenesis was triggered with the addition of xanthurenic acid and a decrease in temperature. Male and female gametes were identified through fluorescent microscopy and quantified from recorded data using a custom imaging algorithm and then compared to negative (DMSO) and positive (1 µM cabamiquine) controls. Percentage inhibition was calculated, and dose-response curves were constructed in GraphPad Prism v10.5 to calculate IC50 values.

PfNF54 female gametes = assay: P. falciparum Dual Gamete Formation Assay (PfDGFA), female; format: cell-based, Plasmodium falciparum
Protocol: as §3

recombinant PfArk1 = recombinant PfArk1 (Plasmodium falciparum, UniProt C6KSQ1); assay: KinaseSeeker three-hybrid split-luciferase competitive binding assay, PfArk1
Sequence of recombinant PfArk1 (C6KSQ1 entry or part of it): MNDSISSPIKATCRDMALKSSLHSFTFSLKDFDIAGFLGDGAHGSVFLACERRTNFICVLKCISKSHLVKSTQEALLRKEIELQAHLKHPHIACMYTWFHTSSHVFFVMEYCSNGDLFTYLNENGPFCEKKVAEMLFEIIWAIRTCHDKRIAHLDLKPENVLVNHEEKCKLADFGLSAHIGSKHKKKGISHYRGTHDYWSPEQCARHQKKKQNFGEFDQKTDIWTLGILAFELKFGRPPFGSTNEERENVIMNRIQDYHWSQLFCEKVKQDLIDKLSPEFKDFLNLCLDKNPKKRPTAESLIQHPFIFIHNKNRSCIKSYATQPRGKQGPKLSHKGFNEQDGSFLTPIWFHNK
Protocol: Supplementary Figure S3: (A) Single-point activity profile of selected inhibitors at 1 µM against recombinant PfArk-1 and PfArk-3 proteins, utilising a three-hybrid split-luciferase competitive binding assay (KinaseSeeker™).

Rat hepatocyte clearance = format: in vitro ADME; settings: rat hepatocytes; for half-life: read-out: Rat hepatocyte t1/2
Description: In vitro ADME analysis for logD, kinetic solubility (PBS, pH 7.4), human liver microsome clearance and t1/2, rat hepatocyte clearance and t1/2, and protein binding in Albumax media (simulating the malaria parasite culture media) was all performed as per standard assays by TCG LifeSciences.

[6] = system: asexual intra-erythrocytic parasites; assay: Fixed-ratio isobologram analysis; settings: additivity/indifference 0.8–1.4, antagonism >1.4
Protocol: Isobolograms were generated by plotting paired FIC values linearly, utilizing the average of three biological replicates, each performed in technical duplicates. The paired FIC values for each drug combination were analyzed, and the mean FIC values (ΣFIC) were calculated to delineate synergism (<0.8), additivity/indifference (0.8–1.4), or antagonism (>1.4).

[7] = Plasmodium falciparum, NF54, 96 h, read-out: Pf NF54 ABS IC50
[8] = Plasmodium falciparum, NF54, read-out: Pf NF54 ABS IC50
[9] = multidrug-resistant K1, read-out: Pf K1 ABS IC50
[10] = 48 h, read-out: Pf DGFA IC50 Male
[11] = read-out: IC50 male gamete exflagellation
[12] = Plasmodium falciparum, NF54, 96 h, ring-stage ABS, 96 h, SYBR Green I, read-out: Pf NF54 ABS IC50
[13] = Plasmodium falciparum, NF54, bounds stated in text, read-out: Pf NF54 ABS IC50
[14] = ring-stage ABS, 96 h, SYBR Green I, read-out: Pf NF54 ABS IC50
[15] = Plasmodium falciparum, 48 h, read-out: Pf DGFA IC50 Female

| SMILES | IC50 [1, 7] | IC50 [1, 8] | IC50 [2] | IC50 ([3]; K1, read-out: Pf K1 ABS IC50) | IC50 [4] | IC50 [3, 9] | IC50 [5, 10] | IC50 [5, 11] | IC50 (PfNF54 female gametes; Plasmodium falciparum, 48 h; read-out: Pf DGFA IC50 Female) | inhibition of PfArk1 (recombinant PfArk1; single point 1 µM) | Rat hepatocyte CLint (Rat hepatocyte clearance) | half-life (Rat hepatocyte clearance) | IC50 [1, 12] | IC50 [1, 13] | IC50 [1, 14] | IC50 (PfNF54 female gametes; 48 h; read-out: Pf DGFA IC50 Female) | IC50 (PfNF54 female gametes; [15]) | IC50 (recombinant PfArk1) | ΣFIC50 in combination with CQ [6] | ΣFIC50 in combination with ML10 [6] |
| --- | --- | --- | --- | --- | --- | --- | --- | --- | --- | --- | --- | --- | --- | --- | --- | --- | --- | --- | --- | --- |
| CCN1CCN(C(=O)Cc2ccc(Nc3ncc(F)c(Nc4ccc(C(=O)Nc5ccccc5Cl)cc4)n3)cc2)CC1 [AAi I, Aurora A Inhibitor I] | 475 ± 90.1 nM | < 1000 nM | 903 nM | 342 nM | < 20000 nM | – | – | – | – | – | – | – | – | – | – | – | – | – | – | – |
| O=C(Nc1c[nH]nc1-c1nc2ccc(CN3CCOCC3)cc2[nH]1)NC1CC1 [AT83, AT9283] | – | – | 105 nM | – | – | 102 nM | 800 nM | 786 ± 16 nM | > 10000 nM | 30% | 12.6 µL min^−1/10e6 cells | 0.917 h | – | – | – | – | – | – | – | – |
| CCN(CCO)CCCOc1ccc2c(Nc3cc(CC(=O)Nc4cccc(F)c4)n[nH]3)ncnc2c1 [AZD-1152, AZD-1152-HQPA] | 753 nM | < 1000 nM | 490 nM | – | < 20000 nM | 341 nM | – | – | – | – | – | – | – | – | – | – | – | – | – | – |
| O=C(Nc1cccc(Nc2nccc(Nc3cccc(C(F)(F)F)c3)n2)c1)C1CC1 [Aki III, Aurora kinase inhibitor III] | – | – | 1600 nM | – | < 20000 nM | 1380 nM | – | – | – | – | – | – | 819 nM | < 1000 nM | – | – | – | – | – | – |
| COc1cc(N2CCC(N3CCN(C)CC3)CC2)ccc1Nc1ncc(Cl)c(Nc2ccccc2S(=O)(=O)C(C)C)n1 [TAE684, NVP-TAE684] | – | – | 227 nM | – | 41400 ± 2300 nM | – | 120 nM | 116 ± 17 nM | – | – | 3.5 µL min^−1/10e6 cells | 3.28 h | 280 ± 13 nM | – | 279 nM | 2260 nM | 2300 ± 50 nM | 146 ± 20 nM | 1.3 | 1.3 |
| COc1cc2c(Nc3ccc(NC(=O)c4ccccc4)cc3)ncnc2cc1OCCCN1CCOCC1 [ZM-39, ZM-447439] | – | – | 374 nM | – | < 20000 nM | 277 nM | > 10000 nM | – | – | – | – | – | < 250 nM | < 1000 nM | 235 nM | – | > 10000 nM | – | 1.4 | – |

Source: paper PMC12707362, “Targeting Aurora Kinases as Essential Cell‐Cycle Regulators to Deliver Multi‐Stage Antimalarials Against Plasmodium Falciparum” (Angewandte Chemie (International Ed. in English), 2025)
